# Assay results published in patent US20190293657A1, “PEPTIDE, FLUORESCENT PROBE COMPRISING THE SAME, AND PREPARATION METHOD THEREOF” (Singulprobe Nanjing Biotechnology Co., Ltd, priority 2017, published 2019).
# Tested on: lysosome (U2OS cells)
# Test: Structural illumination microscopy (N-SIM) super-resolution imaging of lysosomes
# Type: cell-based
# Settings: FIG. 8
# Description: Super-resolution imaging by structural illumination microscopy: super-resolution microscope N-SIM (Nikon, Japan) was employed. The maximum excitation wavelength of Alexa Fluor 647 was 650 nm and the maximum emission wavelength was 665 nm; the maximum excitation wavelength of LysoTracker Red was 577 nm and the maximum emission wavelength of LysoTracker Red was 590 nm; the maximum excitation wavelength of Atto 565 was 563 nm and the maximum emission wavelength of Atto 565 was 592 nm; the maximum excitation wavelength of Atto 488 was 501 nm and the maximum emission wavelength was 523 nm. A sample was photographed using a 2D-SIM mode, one SIM result was calculated from 9 original images (three angles, three phases), and the exposure time of each original image was 30 ms. Considering quick movement ability of a lysosome in living cells, single-color imaging interval time was set as 1 s so as to continuously photograph cells at above 300 frames. After the capturing was completed, the average time interval among various SIM images was about 1.15 s. […]
# Based on a time-lapsed SIM imaging, take the center of the lysosome as a reference, the coordinates of lysosomes were recorded using ImageJ software, and trace charts of 101 lysosomes in four U2OS cells on the confocal surface were drawn using MATLAB (FIGS. 6A-6H). […]
compound,measurement,value
CN(C)CCNC(=O)CCc1ccc2n1[B-](F)(F)[N+]1=C(c3ccc[nH]3)C=CC1=C2 [LysoTracker Red],background in structural illumination super-resolution imaging,uneven background of LysoTracker Red was very obvious
